These results are taken from patent publication US20100217003A1, “1,2,3,4-TETRAHYDROISOQUINOLINE DERIVATIVES HAVING EFFECTS OF PREVENTING AND TREATING DEGENERATIVE AND INFLAMMATORY DISEASES” (priority 2006, published 2010).

One data set concerns IL-1β mRNA. Nature of the data set: Expression of IL-1β genes in LPS-stimulated BV-2 cells (RT-PCR). In kind it is cell-based, mouse. Here is the method: (§1) RT-PCR for GTPCH, iNOS, TNF-α, IL-1β and COX-2
(§2) 5 ? each of total RNA samples isolated from BV-2 cells were subjected to reverse-transcription (RT), and then polymerase chain reaction (PCR) for 30 cycles under the conditions of 94° C. for 30 seconds, 60° C. for 40 seconds and 72° C. for one minute. Primers used in the PCR were as follows: iNOS (forward, ATGTCCGAAG-CAAACATCAC; reverse, TAATGTC CAGGAAGTAGGTG), TNF-α (forward, CA-[…] reverse, CAGAGCAATGACTC-CAAAGTAGACCT), IL-1β (forward, […]; reverse, CAGGACAGGTAT AGATTCTTTCCTTT), COX-2 (forward, […]; reverse, […]), GTPCH (forward, GGATACCAGGAGACCAT CTCA; reverse, TAGCATGGTGC-TAGTGACAGT). RT-PCR for B2M was simultaneously performed as internal control. The PCR products were subjected to electrophoresis in a 1.5% agarose gel, thereby confirming the presence of a desired size of single band.
The assay was performed to investigate whether EHMTIQ (11a) affects IL-β production in an activated microglial cell. LPS-stimulated BV-2 cell smaples were treated with various concentrations of EHMTIQ (11a) and the expression of IL-1β genes was estimated by RT-PCR. The results are illustrated in FIG. 4.

A further data set deals with NF-kB p65. Kind of data set: NF-kB p65 shift to nucleus in LPS-treated cells (Western blot). In kind it is cell-based, mouse. To be noted: 10 (unit as image). Here is the method: Assay for NF-kB p65 Shift to Nucleus
The cells were washed with cold phosphate buffered saline (PBS) and gently suspended in 400 ? buffer solution containing 10 mM HEPES (pH 7.9), 10 mM KCl, 0.1 mM EDTA, 0.1 mM EGTA, 1 mM DTT and 0.5 mM PMSF. The cell suspension was placed on ice for 15 minutes, and reacted with 25 ? NP-40 (0.5%) for 10 seconds. Cen-trifugation for 30 seconds yielded nuclear pellets, which were then resuspended in 50 ? of cold PBS containing 20 mM HEPES (pH 7.9), 400 mM NaCl, and 1 mM each of DTT, EDTA, EGTA and PMSF. The suspension was vortexted for 15 minutes. The nuclear extract was centrifuged at 11,000×g for 15 minutes to get supernatant solution, whose protein content was measured. Equal amounts of the cell extract (5 ? ) were subjected to electrophoresis in a 10% SDS-polyacrylamide gel and then transferred onto a polyvinylidene difluoride-nitrocellulose membrane. The membrane was blocked with TBST containing 8% skim milk at RT for one hour, incubated with primary antibody, anti-NF-kB p65 antibody (1:500 dilution), at 4° C. overnight, and further incubated with secondary antibody conjugated with horseradish peroxidase for one more hour. Protein bands were detected by a chemiluminescence detection method according to the manufacturer's indication.
A transcription factor, NF-kB, shifts into a nucleus to regulate expression of several inflammatory genes. […]
For orientation: In western blotting, separated proteins are transferred to a membrane and probed.

In the next data set the test system is COX-2 mRNA. Kind of data set: Expression of COX-2 genes in LPS-stimulated BV-2 cells (RT-PCR). Type of data set: cell-based, mouse. Here is the method:
as §1, §2
The gene expression of cyclooxigenase-2 (COX-2) stimulating a prostaglandin synthesis causing oxidative stress to neurons increased by the activation of a microglial cell. LPS-stimulated BV-2 cell samples were treated with various concentrations of EHMTIQ (11a), and the expression of COX-2 genes was estimated by RT-PCR. The results are illustrated in FIG. 5.

The next data set relates to mouse liver cell. Kind of data set: Toxicity to mouse liver cell. Type of data set: in vivo. To be noted: FIG. 16.
Another data set relates to GTPCH mRNA. Nature of the data set: Expression of GTPCH genes in LPS-stimulated BV-2 cells (RT-PCR). Type of data set: cell-based, mouse. Here is the method:
as §1, §2
GTP cyclohydrolase I (GTPCH) is a rate-limiting enzyme in the synthesis of tetrahydrobiopterin (BH4) which is essential for iNOS catalysis. Accordingly, the down regulation of GTPCH may lower NO production. The assay was performed to determine whether EHMTIQ (11a) affects the expression of GTPCH genes induced by LPS. The LPS-stimulated BV-2 cell samples were treated with various concentrations of EHMTIQ (11a) and the expression of GTPCH genes was estimated by RT-PCR. The results are illustrated in FIG. 7.

Data set [1] has as its target T1, GTP cyclohydrolase I (GTPCH) (Homo sapiens, UniProt P30793).
T1 sequence (P30793 1-250): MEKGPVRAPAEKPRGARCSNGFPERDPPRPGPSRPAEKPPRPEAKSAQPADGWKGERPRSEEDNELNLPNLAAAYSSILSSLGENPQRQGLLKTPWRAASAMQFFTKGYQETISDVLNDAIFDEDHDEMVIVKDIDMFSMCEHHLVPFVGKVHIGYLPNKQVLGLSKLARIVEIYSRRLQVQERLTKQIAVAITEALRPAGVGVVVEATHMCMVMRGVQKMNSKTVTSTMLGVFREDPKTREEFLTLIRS
Kind of data set: Direct effect on catalysis of GTPCH. Type of data set: biochemical. The note with it: not illustrated.

A further data set concerns BV-2 cell. Kind of data set: Production of NADPH oxidase-derived superoxide in LPS-stimulated BV-2 cells (WST-1). In kind it is cell-based, mouse. How it is done:
Measurement of Superoxide Production
BV-2 microglial cells were planted in a 96-well Petri dish at 0.5×10^5 cells/ml. After a 24-hour culture, the cells were washed twice with Hank's balanced salt solution (HBSS) without phenol red and treated with EHMTIQ (11a) and WST-1. However, some samples were not treated with 20 ? superoxide dismutase (SOD; 800 UI/ml). All samples were incubaed at 37° C. for 10 minutes. The absorbance of a sample was read at 450 nm using a SpectraMax Plus microplate spectrophotometer. The yield of superoxide was calculated according to difference in absorbance value between the samples with and without SOD.
The activation of a microglial cell led to the activation of NADPH oxidase and the production of superoxide. Accordingly, the assay was performed to determine whether EHMTIQ (11a) affects production of NADPH oxidase-derived superoxide. The LPS-stimulated BV-2 cell samples were treated with various concentrations of EHMTIQ (11a) and then the level of released superoxide was measured. The results are illustrated in FIG. 2.

The subject of data set [2] is mouse model of Parkinson's disease induced by MPTP. Kind of data set: Mouse model of Parkinson's disease induced by MPTP (immunostaining of substantia nigra and striatum). In kind it is in vivo.

Turning to `CCC(=O)N1CCc2cc(OC)c(O)cc2C1` [EHMTIQ (11a), 2-ethylcarbonyl-7-hydroxy-6-methoxy-1,2,3,4-tetrahydroisoquinoline], the “mRNA level of IL-1β” value with IL-1β mRNA (2.5 (unit as image)) is given as 74±0.7%; with IL-1β mRNA (100 (unit as image)) it was “significant decrease in the LPS effect”. Further, the “NF-kB p65 in nuclear fraction” value with NF-kB p65 is given as “completely inhibited”. The COX-2 expression is reported as 62±3% in the data set with COX-2 mRNA (2.5 (unit as image)), 75±3% in the data set with COX-2 mRNA (5 (unit as image)) and 83±2% in the data set on COX-2 mRNA (10 (unit as image)). Moreover, the “toxicity to a mouse liver cell” value with mouse liver cell is recorded as “non-toxicity”. The “gene expression of GTPCH” value in the data set on GTPCH mRNA (2.5 (unit as image)) is listed as 17±1%; in the data set on GTPCH mRNA (100 (unit as image)), 75±1%. In addition, in data set [1], the “direct effect on catalysis of GTPCH” value is listed as “did not directly relate to the catalysis of GTPCH”. Further, the superoxide production in the data set with BV-2 cell (5 (unit as image)) is listed as 62±3.1%; in the data set on BV-2 cell (10 (unit as image)), 65±3.1%. Also, the “activation of microglial cells in the substantia nigra (Iba-1 immunostaining)” value in data set [2] (MPTP mouse (FIG. 13)) is reported as “inhibitory effect”. The “dopaminergic neurons in the substantia nigra (TH immunostaining)” value in data set [2] (MPTP mouse (FIG. 14)) is listed as “protective effect”. The “degeneration of dopaminergic neurons in the substantia nigra (fluoroJade C and TH double labelling)” value in data set [2] (MPTP mouse (FIG. 14, right panels)) is “inhibitory effect”. For the same compound, the “dopamine nerve terminals in the striatum (TH immunostaining)” value in data set [2] (MPTP mouse (FIG. 15)) is listed as “protective effect”.
